What was measured:
Type in all cases: in vivo, mouse
[1] = test system: OVO857_CIS ("OVO0875") ovarian PDX; assay: OVO857_CIS ovarian PDX model; conditions: for Tumor growth inhibition (TGI %): OVO857 PDX; for Mean Tumor volume (mm^3) ± SEM / TGI (%): OVO875 ovarian cancer PDX
Description: (§1) In-house in vivo patient derived xenograft (PDX) efficacy studies were conducted using 2 different ovarian PDX models, OVO857_CIS (“OVO0875”) and CTG3226. 6-8-week-old female NSG (NOD-SCID IL2Rgamma^null) as seed mice were implanted subcutaneously with tumor tissue fragments. When sufficient seed animals reached 1000-1500 mm^3, tumors were harvested, and fragments were implanted into study animals. When tumor volume reached approximately 150-250 mm^3, mice were randomly assigned into different groups (n=3 mice per group). One group received no treatment. Four groups were administered intravenously 10, 5, 2.5 and 1.25 mg/kg AB1370049-SG3932 DAR8 respectively. Two groups were administered intravenously 5 and 2.5 mg/kg FRα-DM4 ADC (“biosimilar to mirvetuximab soravtansine”, with a DAR of about 3) respectively. All dosed animals received drug intravenously as a single dose at 10 ml/kg, on day 39 for OVO857_CIS and day 46 for CTG3226 PDX models.
(§2) Tumor volumes were measured by digital caliper and the volumes of tumors were calculated using the following formula: tumor volume=[length (mm)×width (mm)^2×0.52, where the length and width are the longest and shortest diameters of the tumor, respectively. Body weights were measured twice weekly to assess tolerability of the treatments.
(§3) The growth of tumors in each experimental group was expressed as the mean tumor volume (mm^3)±SEM of the number of animals used.
(§4) Tumor growth inhibition (TGI) was calculated by comparing each treatment group to the untreated control group. Percentage inhibition was calculated from the group means using the following formula: […]
(§5) Where C is mean tumor volume of untreated control group and T is mean tumor volume of treated groups.

[2] = test system: FRα-DM4-resistant OVCAR-3 tumors; assay: FRα-DM4-resistant OVCAR3 xenograft model; conditions: FRα-DM4 resistant OVCAR3 tumors re-implanted in new host mice; two doses (Q2W) of 5 mg/kg
Description: To develop the OVCAR3 xenograft model, 10×10^6 cells/mouse in 50% Matrigel were inoculated subcutaneously into female 6-8-week-old female NSG (NOD-SCID IL2Rgamma^null). When tumour volume reached within the range of 200-600 mm^3, mice were dosed intravenously with FRα-DM4 ADC (“biosimilar to mirvetuximab soravtansine”, with a DAR of about 3) at 5 mg/kg, once every 2 weeks (Q2W) continuously until tumours relapsed and began to grow in size again. Among mice relapsed after 8 rounds of Q2W dosing, 4 mice were selected and re-challenged with AB1370049-SG3932 DAR8 intravenously at 5 mg/kg Q2W, receiving 2 rounds of AB1370049-SG3932 DAR8 treatment.
Separately, relapsed tumor from an additional mouse was excised and re-implanted subcutaneously into female 6-8-week-old female NSG (NOD-SCID IL2Rgamma^null) mice. […]
as §2, with “(mm)× width” for “(mm)×width”
as §3

[3] = test system: CTG3226 ovarian PDX; assay: CTG3226 ovarian PDX model; conditions: for Tumor growth inhibition (TGI %): CTG3226 PDX; for Mean Tumor volume (mm^3) ± SEM / TGI (%): CTG3226 ovarian cancer PDX
Description: as §1, §2, §3, §4, §5

FRα-DM4 ADC: "biosimilar to mirvetuximab soravtansine", with a DAR of about 3
Tumor growth inhibition (TGI %) ([1]; single iv dose 2.5 mg/kg): 2%
Tumor growth inhibition (TGI %) ([1]; single iv dose 5 mg/kg): 24%
Mean Tumor volume (mm^3) ± SEM ([1]; single iv dose 2.5 mg/kg): 1882.00 ± 199.43 mm^3
TGI (%) ([1]; single iv dose 2.5 mg/kg): 2.40%
Mean Tumor volume (mm^3) ± SEM ([1]; single iv dose 5 mg/kg): 1457.15 ± 250.01 mm^3
TGI (%) ([1]; single iv dose 5 mg/kg): 24.43%
TGI (%) [2]: still resistant to the treatment
Tumor growth inhibition (TGI %) ([3]; single iv dose 2.5 mg/kg): no activity
Tumor growth inhibition (TGI %) ([3]; single iv dose 5 mg/kg): 76.5%
Mean Tumor volume (mm^3) ± SEM ([3]; single iv dose 2.5 mg/kg): 1127.58 ± 481.10 mm^3
TGI (%) ([3]; single iv dose 2.5 mg/kg): −16.66%
Mean Tumor volume (mm^3) ± SEM ([3]; single iv dose 5 mg/kg): 226.86 ± 46.03 mm^3
TGI (%) ([3]; single iv dose 5 mg/kg): 76.53%

— patent publication US20230295293A1, “BINDING MOLECULES AGAINST FRa” (AstraZeneca AB, priority 2022, published 2023)
